In assay [1] the test system is leukemia MOLM-13 cell line. In words: 4-day cell viability assay, CellTiter-Glo. Particulars: Homo sapiens, MOLM-13, 96 h, read-out: Cell Growth Inhibition (IC50 (nM)) MOLM-13 Cell Line (CellTiter-Glo assay). It counts as cell-based. The procedure: (§1) The effect of representative BET bromodomain inhibitors on cell viability was determined in a 4-day proliferation assay. Cells were maintained in the appropriate culture medium with 10% FBS at 37° C. and an atmosphere of 5% CO2. All the cell lines were used within three months of thawing fresh vials.
(§2) Cells were seeded in 96-well flat bottom (Corning COSTAR, Corning, N.Y., cat#3595) or white opaque cell culture plates (BD Falcon, cat#353296) at a density of 3,000-10,000 cells/well in 75 μl of culture medium. Compounds were serially diluted in the appropriate medium, and 75 μl of the diluted compounds were added to the appropriate wells of the cell plate. After the addition of compounds, the cells were incubated at 37° C. in an atmosphere of 5% CO2 for 4 days. Cell viability was determined using the CellTiter-Glo® Luminescent Cell Viability Assay Kit (Promega, Madison, Wis.) for MOLM-13 cells and WST (2-(2-methoxy-4-nitrophenyl)-3-(4-nitrophenyl)-5-(2,4-disulfophenyl)-2H-tetrazolium, monosodium salt) Cell Counting-8 Kit (Dojindo Molecular Technologies, Inc., Rockville, Md.) for MDA-MB-436 cells according to the manufacturers' instructions.
For the CellTiter-Glo assay, 100 μl of CellTiter-Glo® Reagent was added to each well, and then the plates were incubated at room temperature for 10-20 minutes. The luminescent signal was measured using a Tecan Infinite M1000 multimode microplate reader (Tecan, Morrisville, N.C.). The readings were normalized to the DMSO-treated cells and the IC50 was calculated by nonlinear regression (four parameters sigmoid fitted with variable slope, least squares fit, and no constraint) analysis using the GraphPad Prism 5 software.

In assay [2] the test system is breast cancer MDA-MB-436 cell line. In words: 4-day cell viability assay, WST. The class given is cell-based. Particulars: Homo sapiens, MDA-MB-436, 96 h, read-out: Cell Growth Inhibition (IC50 (nM)) MDA-436 Cell Line (WST assay). As for the experimental part: as §1, §2
For the WST assay, WST-8 reagent was added to each well at a final concentration of 10% (v/v), and then the plates were incubated at 37° C. for 1-2 hours for color development. The absorbance was measured at 450 nm using a SPECTRAmax PLUS plate reader (Molecular Devices, Sunnyvale, Calif.). The readings were normalized to the DMSO-treated cells and the half maximal inhibitory concentration (IC50) was calculated by nonlinear regression (four parameters sigmoid fitted with variable slope, least squares fit, and no constraint) analysis using the GraphPad Prism 5 software (GraphPad Software, La Jolla, Calif.).

A further assay addresses BRD2 BD1 (Homo sapiens (Human), UniProt P25440). Put plainly: FP competitive binding assay using Cpd. No. 350 as the probe.
A further assay addresses BRD2 BD2 (Homo sapiens (Human), UniProt P25440). The assay is described as above.
The target of the next assay is BRD3 BD1 (Homo sapiens (Human), UniProt Q15059). Described as above.
The next assay concerns the target BRD3 BD2 (Homo sapiens (Human), UniProt Q15059). Described as above.
For a further assay, the target named is BRD4 BD1 (Homo sapiens (Human), UniProt O60885). Described as above.
A further assay addresses BRD4 BD2 (Homo sapiens (Human), UniProt O60885). The description is as above.
Setting [3] is: read-out: BRD2 BD1 Ki, FP, Cpd. No. 350 probe […].
The mark [4] stands for this setting: read-out: BRD2 BD2 Ki, FP, Cpd. No. 350 probe […].
Setting [5] is: read-out: BRD3 BD1 Ki, FP, Cpd. No. 350 probe […].
Where [6] appears, read: read-out: BRD3 BD2 Ki, FP, Cpd. No. 350 probe […].
The mark [7] stands for this setting: read-out: BRD4 BD1 Ki, FP, Cpd. No. 350 probe […].
Setting [8] is: read-out: BRD4 BD2 Ki, FP, Cpd. No. 350 probe […].

Structures are written as SMILES. Read-outs that look alike come from different tables or passages of the source. Some results are limits rather than exact numbers.

BRD3 BD1, sequence (Q15059 34-140): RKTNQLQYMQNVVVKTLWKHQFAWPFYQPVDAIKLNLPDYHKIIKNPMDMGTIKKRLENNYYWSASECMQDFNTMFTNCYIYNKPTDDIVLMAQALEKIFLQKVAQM
BRD2 BD1, sequence (P25440 74-180): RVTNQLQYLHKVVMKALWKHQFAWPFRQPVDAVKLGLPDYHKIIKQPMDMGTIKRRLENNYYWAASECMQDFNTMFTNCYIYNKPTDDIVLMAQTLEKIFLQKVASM
BRD2 BD2, sequence (P25440 344-453): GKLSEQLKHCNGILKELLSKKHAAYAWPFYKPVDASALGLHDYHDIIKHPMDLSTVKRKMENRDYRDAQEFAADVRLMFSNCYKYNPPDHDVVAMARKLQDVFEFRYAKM
BRD3 BD2, sequence (Q15059 306-415): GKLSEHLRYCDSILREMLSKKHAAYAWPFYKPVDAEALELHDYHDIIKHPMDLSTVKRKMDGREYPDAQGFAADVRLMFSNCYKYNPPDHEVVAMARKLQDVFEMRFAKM
Procedure for BRD2 BD1: (§3) Fluorescence Polarization (FP) competitive binding studies (see above) were carried out using the FAM labeled fluorescent probe Cpd. No. 350 to determine binding affinities of representative compounds to both BD1 and BD2 of BRD2, BRD3, and BRD4 proteins. Equilibrium dissociation constants (Id) values of Cpd. No. 350 to these six proteins were determined from protein saturation experiments by monitoring the total fluorescence polarization of mixtures composed with the fluorescent probe at a fixed concentration and proteins with increasing concentrations up to full saturation. Serial dilutions of testing protein were mixed with Cpd. No. 350 to a final volume of 200 μl in the assay buffer. […] Plates were incubated at room temperature for 30 minutes with gentle shaking to assure equilibrium. […] Kd values of Cpd.
(§4) The IC50 and Ki values of compounds were determined in a competitive binding experiment as described above. […] FP values were measured as described above. IC50 values were determined by nonlinear regression fitting of the competition curves.
Procedure for BRD2 BD2: as §3, §4
Procedure for BRD3 BD1: as §3, §4
Procedure for BRD3 BD2: as §3, §4
Procedure for BRD4 BD1: as §3, §4
Procedure for BRD4 BD2: as §3, §4

As a reminder, the IC50 is the midpoint of a concentration-inhibition curve. For `COc1cc2c(cc1-c1c(C)noc1C)[nH]c1ccnc(-c3c(-c4ccccc4)n[nH]c3C)c12` [Cpd. No. 26, 4-(8-methoxy-1-(5-methyl-3-phenyl-1H-pyrazol-4-yl)-5H-pyrido[4,3-b]indol-7-yl)-3,5-dimethylisoxazole], the IC50 stood at 431 nM in assay [1] (4 days) and 696 nM in assay [2] (4 days).
Broadly, the Ki is a measure of affinity in units of concentration, obtained from inhibition or displacement. `COc1cc2c(cc1-c1c(C)nn(C)c1C)[nH]c1ccnc(-c3c(C)nn(C)c3C)c12` [Cpd. No. 33, 8-methoxy-1,7-bis(1,3,5-trimethyl-1H-pyrazol-4-yl)-5H-pyrido[4,3-b]indole]: the Ki worked out at 1.67 ± 0.448 µM on BRD2 BD1; 0.909 ± 0.272 µM on BRD2 BD2; 1.22 ± 0.1 µM on BRD3 BD1; 0.348 ± 0.012 µM on BRD3 BD2; 1.726 ± 0.017 µM at BRD4 BD1; 0.867 ± 0.107 µM at BRD4 BD2.
Turning to `COc1cc2c(cc1-c1c(C)noc1C)[nH]c1nc(C)nc(-c3cccc(C(C)(C)O)c3)c12` [Cpd. No. 183, 2-(3-(7-(3,5-Dimethylisoxazol-4-yl)-6-methoxy-2-methyl-9H-pyrimido[4,5-b]indol-4-yl)phenyl)propan-2-ol], the IC50 in assay [1] (4 days) was 20 nM; in assay [2] (4 days), 93 nM. The Ki turned out to be 0.0052 µM at BRD2 BD1 (setting [3]); 0.0088 µM on BRD2 BD2 (setting [4]); 0.0061 µM at BRD3 BD1 (setting [5]); 0.0047 µM at BRD3 BD2 (setting [6]); 0.0079 µM at BRD4 BD1 (setting [7]); 0.0117 µM on BRD4 BD2 (setting [8]).
With `COc1cc2c(cc1-c1c(C)noc1C)[nH]c1nc(C)nc(-c3ccc(C(=O)NC4CCN(C)CC4)c4ccccc34)c12` [Cpd. No. 196, 4-(7-(3,5-Dimethylisoxazol-4-yl)-6-methoxy-2-methyl-9H-pyrimido[4,5-b]indol-4-yl)-N-(1-methylpiperidin-4-yl)-1-naphthamide], the values for the IC50 in assay [1] (4 days) and in assay [2] (4 days) were 6.8 nM and 53 nM, respectively. Besides, the Ki at BRD2 BD1 (setting [3]) stood at 0.0043 µM; on BRD2 BD2 (setting [4]), 0.0035 µM; on BRD3 BD1 (setting [5]), 0.0097 µM; at BRD3 BD2 (setting [6]), 0.0014 µM; on BRD4 BD1 (setting [7]), 0.0123 µM; on BRD4 BD2 (setting [8]), 0.007 µM.
In the case of `COc1cc2c(cc1-c1c(C)noc1C)[nH]c1nc(C)nc(-c3ccc(C(=O)NC4CCN(C5COC5)CC4)c4ccccc34)c12` [Cpd. No. 197, 4-(7-(3,5-Dimethylisoxazol-4-yl)-6-methoxy-2-methyl-9H-pyrimido[4,5-b]indol-4-yl)-N-(1-(oxetan-3-yl)piperidin-4-yl)-1-naphthamide], the results for the IC50 in assay [1] (4 days) and in assay [2] (4 days) were 17.3 nM and 101 nM, respectively. In addition, the Ki on BRD2 BD1 (setting [3]) was 0.0062 µM; on BRD2 BD2 (setting [4]) it was 0.0036 µM; at BRD3 BD1 (setting [5]), 0.0105 µM; on BRD3 BD2 (setting [6]) it was 0.0013 µM; on BRD4 BD1 (setting [7]), 0.0171 µM; at BRD4 BD2 (setting [8]), 0.0089 µM.
As to `COc1cc2c(cc1-c1c(C)noc1C)[nH]c1nc(C)nc(-c3ccc(C(=O)N4CCN(C)CC4)c4ccccc34)c12` [Cpd. No. 207, (4-(7-(3,5-Dimethylisoxazol-4-yl)-6-methoxy-2-methyl-9H-pyrimido[4,5-b]indol-4-yl)naphthalen-1-yl)(4-methylpiperazin-1-yl)methanone], the IC50 was determined as 5.3 nM in assay [1] (4 days) and 58.1 nM in assay [2] (4 days). Besides, the Ki was determined as 0.0053 µM at BRD2 BD1 (setting [3]); 0.0051 µM at BRD2 BD2 (setting [4]); 0.01 µM at BRD3 BD1 (setting [5]); 0.0013 µM on BRD3 BD2 (setting [6]); 0.0147 µM on BRD4 BD1 (setting [7]); 0.0041 µM on BRD4 BD2 (setting [8]).
Consider `COc1cc2c(cc1-c1c(C)noc1C)[nH]c1nc(C)nc(-c3cc(C(=O)NC4CCN(C)CC4)[nH]c3C(C)C)c12` [Cpd. No. 211, 4-(7-(3,5-Dimethylisoxazol-4-yl)-6-methoxy-2-methyl-9H-pyrimido[4,5-b]indol-4-yl)-5-isopropyl-N-(1-methylpiperidin-4-yl)-1H-pyrrole-2-carboxamide], for which the results for the IC50 in assay [1] (4 days) and in assay [2] (4 days) were 10.4 nM and 140 nM, respectively. The Ki on BRD2 BD1 (setting [3]) came out at 0.0057 µM; on BRD2 BD2 (setting [4]), 0.0049 µM; at BRD3 BD1 (setting [5]) it was 0.0108 µM; on BRD3 BD2 (setting [6]), 0.0012 µM; at BRD4 BD1 (setting [7]), 0.0172 µM; at BRD4 BD2 (setting [8]), 0.0052 µM.
Regarding `COc1cc2c(cc1-c1c(C)noc1C)[nH]c1nc(C)nc(-c3cc(C(=O)NC4CCN(C5CCOCC5)CC4)[nH]c3C(C)C)c12` [Cpd. No. 212, 4-(7-(3,5-Dimethylisoxazol-4-yl)-6-methoxy-2-methyl-9H-pyrimido[4,5-b]indol-4-yl)-5-isopropyl-N-(1-(tetrahydro-2H-pyran-4-yl)piperidin-4-yl)-1H-pyrrole-2-carboxamide], the IC50 worked out at 22 nM in assay [1] (4 days) and 100 nM in assay [2] (4 days). For the same compound, the Ki on BRD2 BD1 (setting [3]) worked out at 0.0057 µM; on BRD2 BD2 (setting [4]) it was 0.0046 µM; at BRD3 BD1 (setting [5]), 0.0102 µM; on BRD3 BD2 (setting [6]), 0.001 µM; on BRD4 BD1 (setting [7]) it was 0.017 µM; on BRD4 BD2 (setting [8]) it was 0.0045 µM.
As for `COc1cc2c(cc1-c1c(C)noc1C)[nH]c1nc(C)nc(-c3ccc(NC(=O)N4CCN(C)CC4)c4ccccc34)c12` [Cpd. No. 316], the IC50 was determined as 7.4 nM in assay [1] and 45.2 nM in assay [2].
The corresponding values for `COc1cc2c(cc1-c1c(C)noc1C)[nH]c1nc(C)nc(-c3ccc(NC(=O)N4CCN(C5COC5)CC4)c4ccccc34)c12` [Cpd. No. 317] are 31.6 nM and 169 nM.
Taken in the same sequence, the figures for `COc1cc2c(cc1-c1c(C)noc1C)[nH]c1nc(C)nc(-c3cc(C(=O)NC4CCN(C)CC4)cc(C(C)(C)C)c3)c12` [Cpd. No. 319] were 10 nM and 67.4 nM.
The corresponding values for `COc1cc2c(cc1-c1c(C)noc1C)[nH]c1nc(C)nc(-c3cc(C(=O)NC4CCN(C5COC5)CC4)cc(C(C)(C)C)c3)c12` [Cpd. No. 322] are 19.4 nM and 63.9 nM.
For the compound `COc1cc2c(cc1-c1c(C)noc1C)[nH]c1ccnc(Cl)c12` [RX-3, 4-(1-chloro-8-methoxy-5H-pyrido[4,3-b]indol-7-yl)-3,5-dimethylisoxazole], the Ki at BRD2 BD1 (setting [3]) was 0.215 ± 0.034 µM; on BRD2 BD2 (setting [4]), 0.109 ± 0.01 µM; on BRD3 BD1 (setting [5]), 0.144 ± 0.017 µM; on BRD3 BD2 (setting [6]), 0.0638 ± 0.006 µM; on BRD4 BD1 (setting [7]) it was 0.305 ± 0.026 µM; at BRD4 BD2 (setting [8]), 0.194 ± 0.024 µM.
Regarding `COc1cc2c(cc1-c1c(C)nn(C)c1C)[nH]c1ccnc(Cl)c12` [RX-27], the Ki came out at 5.45 ± 1.92 µM on BRD2 BD1 (setting [3]); 2.84 ± 0.574 µM at BRD2 BD2 (setting [4]); 5.03 ± 1.01 µM at BRD3 BD1 (setting [5]); 2.05 ± 0.142 µM on BRD3 BD2 (setting [6]); 4.842 ± 0.029 µM on BRD4 BD1 (setting [7]); 1.95 ± 0.175 µM at BRD4 BD2 (setting [8]).
Take `CCc1onc(C)c1-c1cc2[nH]c3ccnc(Cl)c3c2cc1OC` [RX-38]: the Ki at BRD2 BD1 (setting [3]) worked out at 0.76 ± 0.24 µM; at BRD2 BD2 (setting [4]), 1.88 ± 0.432 µM; at BRD3 BD1 (setting [5]), 0.703 ± 0.432 µM; on BRD3 BD2 (setting [6]), 1.28 ± 1.07 µM; at BRD4 BD1 (setting [7]), 2.81 ± 0.782 µM; on BRD4 BD2 (setting [8]), 2.18 ± 0.132 µM.
For the compound `CCc1noc(C)c1-c1cc2[nH]c3ccnc(Cl)c3c2cc1OC` [RX-39], the Ki worked out at 1.72 ± 0.892 µM at BRD2 BD1 (setting [3]); 0.638 ± 0.07 µM at BRD2 BD2 (setting [4]); 0.668 ± 0.082 µM on BRD3 BD1 (setting [5]); 0.406 ± 0.192 µM at BRD3 BD2 (setting [6]); 1.24 ± 0.549 µM at BRD4 BD1 (setting [7]); 0.478 ± 0.069 µM on BRD4 BD2 (setting [8]).
Regarding `CCc1noc(CC)c1-c1cc2[nH]c3ccnc(Cl)c3c2cc1OC` [RX-45], the Ki is 3.44 ± 1.99 µM on BRD3 BD2 (setting [6]), over 10 µM at BRD4 BD1 (setting [7]) and 8.32 ± 3.22 µM at BRD4 BD2 (setting [8]).

For the origin of these results see patent US9675697B2 (THE REGENTS OF THE UNIVERSITY OF MICHIGAN, priority 2013, dated 2017).
